Data set [1] is described as follows: in vitro. The settings on record: human.
Data set [2] has as its system HCoV-229E. Nature of the data set: anti-HCoV-229E activity in Huh7 cells by cytopathic effect (CPE) assay. The conditions noted are these: Human coronavirus 229E, Huh-7, HCoV-229E 100 TCID50 in Huh7 cells, about 48 h. The format is cell-based, Human coronavirus HCoV-229E.
In data set [3] the test system is HCoV-229E. Nature of the data set: anti-HCoV-229E activity in Huh7.5 cells by cytopathic effect (CPE) assay. In kind it is cell-based, Human coronavirus HCoV-229E. The settings on record: Human coronavirus 229E, HCoV-229E 100 TCID50 in Huh7.5 cells, about 48 h.
Data set [4] is described as follows: in vitro. The conditions noted are these: human. The source holds these as a separate data set.

Where only a bound is given, the exact number is not on record here.

Consider `Cn1c(=O)c2c(nc(NCCO)n2Cc2cccc([N+](=O)[O-])c2)n(C)c1=O` [IMB-79], for which the CC50 in data set [1] was > 200 µM. The compound also registered an EC50 in data set [2] of 17.2 µM.
Take `COc1cccc(Cn2c(N3CCN(c4ccc(F)cc4)CC3)nc3c2c(=O)n(C)c(=O)n3C)c1` [IMB-2-31, 8-(4-(4-fluorophenyl)piperazin-1-yl)-7-(3-methoxybenzyl)-1,3-dimethyl-3,7-dihydro-1H-purine-2,6-dione]: the CC50 in data set [1] is > 200 µM. In data set [2], this compound returned an EC50 of 38.5 µM.
With `Cn1c(=O)c2c(nc(NCCO)n2Cc2cccc(F)c2F)n(C)c1=O` [IMB-82, 7-(2,3-difluorobenzyl)-8-((2-hydroxyethyl)amino)-1,3-dimethyl-3,7-dihydro-1H-purine-2,6-dione], the 50% effective concentration (EC50) was found to be 69.3 µM in data set [3] and 30.4 µM in data set [2]. The CC50 in data set [4] and in data set [1] was > 274 µM throughout.
Turning to `Cn1c(=O)c2c(nc(NCCO)n2Cc2ccc(OC(F)(F)F)cc2)n(C)c1=O` [IMB-2-3, 8-((2-hydroxyethyl)amino)-1,3-dimethyl-7-(4-(trifluoromethoxy)benzyl)-3,7-dihydro-1H-purine-2,6-dione], the EC50 came out at 4.79 µM in data set [3] and 11.4 µM in data set [2]. The CC50 in data set [4] and in data set [1] was > 242 µM throughout.
As to `CCCn1c(=O)c2c(nc(NCCO)n2Cc2cccc(OC)c2)n(C)c1=O` [IMB-3-47, 8-((2-hydroxyethyl)amino)-7-(3-methoxybenzyl)-3-methyl-1-propyl-3,7-dihydro-1H-purine-2,6-dione], the CC50 in data set [1] was > 200 µM. It took 85.9 µM to reach a half-maximal effect in data set [2] (EC50).
Turning to `COCCNc1nc2c(c(=O)n(C)c(=O)n2C)n1Cc1cccc(OC)c1` [IMB-ZH-10, 7-(3-methoxybenzyl)-8-((2-methoxyethyl)amino)-1,3-dimethyl-3,7-dihydro-1H-purine-2,6-dione], the EC50 is 19 µM in data set [3] and 8.6 µM in data set [2]. Further, the CC50 in data set [4] and in data set [1] was > 134 µM throughout.
In data set [1], `C=CCn1c(=O)c2c(nc(NCCO)n2Cc2cccc(OC)c2)n(C)c1=O` [IMB-3-71, allyl-8-((2-hydroxyethyl)amino)-7-(3-methoxybenzyl)-3-methyl-3,7-dihydro-1H-purine-2,6-dione] showed a CC50 of 115 µM. The midpoint of the response in data set [2], the EC50, lay at 38.5 µM.
Take `COc1cccc(Cn2c(NCC(N)=O)nc3c2c(=O)n(C)c(=O)n3C)c1` [IMB-ZHC-15, ((7-(3-methoxybenzyl)-1,3-dimethyl-2,6-dioxo-2,3,6,7-tetrahydro-1H-purin-8-yl)amino)acetamide]: the EC50 in data set [3] was determined as 58.9 µM; in data set [2] it was 44.8 µM. Moreover, the CC50 in data set [4] and in data set [1] was > 134 µM throughout.
For `COc1cccc(Cn2c(NC[C@H](C)O)nc3c2c(=O)n(C)c(=O)n3C)c1` [IMB-ZHC-7, (S)-8-((2-hydroxypropyl)amino)-7-(3-methoxybenzyl)-1,3-dimethyl-3,7-dihydro-1H-purine-2,6-dione], the EC50 in data set [3] stood at 44.7 µM; in data set [2], 19.2 µM. Also, the CC50 in data set [4] and in data set [1] was > 134 µM each time.
As for `C#CCn1c(=O)c2c(nc(NCCO)n2Cc2cccc(OC)c2)n(C)c1=O` [IMB-3-72, 8-((2-hydroxyethyl)amino)-7-(3-methoxybenzyl)-3-methyl-1-(prop-2-yn-1-yl)-3,7-dihydro-1H-purine-2,6-dione], the CC50 in data set [1] is > 200 µM. Moreover, in data set [2], it took 115 µM to reach a half-maximal effect (EC50).
In the case of `COc1cccc(Cn2c(NCCO)nc3c2c(=O)n(C)c(=O)n3Cc2ccccc2)c1` [IMB-3-81, benzyl-8-((2-hydroxyethyl)amino)-7-(3-methoxybenzyl)-1-methyl-3,7-dihydro-1H-purine-2,6-dione], the CC50 in data set [1] was > 200 µM. Besides, in data set [2], the EC50 stood at 96.2 µM.
The matching figures for `C#CCCn1c(=O)c2c(nc(NCCO)n2Cc2cccc(OC)c2)n(C)c1=O` [IMB-3-45, 1-(but-3-yn-1-yl)-8-((2-hydroxyethyl)amino)-7-(3-methoxybenzyl)-3-methyl-3,7-dihydro-1H-purine-2,6-dione]: > 200 µM and 66.7 µM.
Turning to `Cn1c(=O)c2c(nc(NCCO)n2Cc2ccc(F)cc2)n(C)c1=O` [IMB-2-2, 7-(4-fluorobenzyl)-8-((2-hydroxyethyl)amino)-1,3-dimethyl-3,7-dihydro-1H-purine-2,6-dione], the CC50 in data set [1] was > 200 µM. Moreover, the EC50 in data set [2] worked out at 3.15 µM.
`COc1cccc(Cn2c(NCCO)nc3c2c(=O)n(Cc2ccc(F)cc2)c(=O)n3C)c1` [IMB-3-13, 1-(4-fluorobenzyl)-8-((2-hydroxyethyl)amino)-7-(3-methoxybenzyl)-3-methyl-3,7-dihydro-1H-purine-2,6-dione]: the CC50 in data set [1] is 46.2 µM. Moreover, the EC50 in data set [2] was found to be 17.2 µM.
The compound `CCn1c(=O)c2c(nc(Br)n2Cc2cccc(OC)c2)n(C)c1=O` [IMB-3-30, 8-bromo-1-ethyl-7-(3-methoxybenzyl)-3-methyl-3,7-dihydro-1H-purine-2,6-dione] came in with a CC50 in data set [1] of 155 µM. This compound had an EC50 in data set [2] of 4.28 µM.
`COc1cccc(Cn2c(-n3ccnc3)nc3c2c(=O)n(C)c(=O)n3C)c1` [IMB-2-26, 8-(1H-imidazol-1-yl)-7-(3-methoxybenzyl)-1,3-dimethyl-3,7-dihydro-1H-purine-2,6-dione]: the CC50 in data set [1] is > 200 µM. For the same compound, a half-maximal effect in data set [2] (EC50) was put at 38.5 µM.
In the case of `Cn1c(=O)c2c(nc(NCCO)n2Cc2ccc(F)cc2F)n(C)c1=O` [IMB-83, 7-(2,4-difluorobenzyl)-8-((2-hydroxyethyl)amino)-1,3-dimethyl-3,7-dihydro-1H-purine-2,6-dione], the CC50 in data set [1] was > 200 µM. The compound further displayed an EC50 in data set [2] of 3.15 µM.
As for `CCOC(=O)c1cccc(Cn2c(NCCO)nc3c2c(=O)n(C)c(=O)n3C)c1` [IMB-4-6, ethyl3-((8-((2-hydroxyethyl)amino)-1,3-dimethyl-2,6-dioxo-1,2,3,6-tetrahydro-7H-purin-7-yl)methyl)benzoate], the CC50 in data set [1] came out at 200 µM. A half-maximal effect in data set [2] (EC50) was put at 2.47 µM.
As for `COc1cccc(Cn2c(NCCO)nc3c2c(=O)n(CC2CCOCC2)c(=O)n3C)c1` [IMB-3-6, 8-((2-hydroxyethyl)amino)-7-(3-methoxybenzyl)-3-methyl-1-((tetrahydro-2H-pyran-4-yl)methyl)-3,7-dihydro-1H-purine-2,6-dione], in data set [1], the CC50 is > 200 µM.
On to `COc1cccc(Cn2c(NCCO)nc3c2c(=O)n(CCCNC(=O)OC(C)(C)C)c(=O)n3C)c1` [IMB-3-58, tert-butyl(3-(8-((2-hydroxyethyl)amino)-7-(3-methoxybenzyl)-3-methyl-2,6-dioxo-2,3,6,7-tetrahydro-1H-purin-1-yl)propyl)carbamate], for which the CC50 in data set [1] is > 200 µM. Besides, a half-maximal response in data set [2] (EC50) required 66.7 µM.
`COc1cccc(Cn2c(NCCO)nc3c2c(=O)n(Cc2ccncc2)c(=O)n3C)c1` [IMB-3-16, 8-((2-hydroxyethyl)amino)-7-(3-methoxybenzyl)-3-methyl-1-(pyridin-4-ylmethyl)-3,7-dihydro-1H-purine-2,6-dione] gave a CC50 in data set [1] of 115 µM. Moreover, a half-maximal effect in data set [2] (EC50) was put at 22.2 µM.
In the case of `COc1cccc(CCn2c(NCCO)nc3c2c(=O)n(C)c(=O)n3C)c1` [IMB-4-13, 8-((2-hydroxyethyl)amino)-7-(3-methoxyphenethyl)-1,3-dimethyl-3,7-dihydro-1H-purine-2,6-dione], the CC50 in data set [1] is > 200 µM. For the same compound, in data set [2], the EC50 came out at 15.4 µM.
Turning to `CCn1c(=O)c2c(nc(NCCO)n2Cc2cccc(OC)c2)n(C)c1=O` [IMB-3-46, ethyl-8-((2-hydroxyethyl)amino)-7-(3-methoxybenzyl)-3-methyl-3,7-dihydro-1H-purine-2,6-dione], in data set [1], the CC50 is > 200 µM. Also, a half-maximal effect in data set [2] (EC50) was put at 155 µM.
Take `COc1cccc(Cn2c(NCCO)nc3c2c(=O)n(CCNC(=O)OC(C)(C)C)c(=O)n3C)c1` [IMB-3-57, tert-butyl(2-(8-((2-hydroxyethyl)amino)-7-(3-methoxybenzyl)-3-methyl-2,6-dioxo-2,3,6,7-tetrahydro-1H-purin-1-yl)ethyl)carbamate]: in data set [1], the CC50 was > 200 µM. In data set [2], this compound registered a half-maximal effective concentration (EC50) of 66.7 µM.
Regarding `NC(=O)c1ncn([C@@H]2O[C@H](CO)[C@@H](O)[C@H]2O)n1` [RBV, Ribavirin, reference compound], the EC50 in data set [3] came out at 16.7 µM; in data set [2], 26.2 µM.
Take `Cn1c(=O)c2c(nc(NCCO)n2Cc2ccccc2Br)n(C)c1=O` [IMB-2-6, 7-(2-bromobenzyl)-8-((2-hydroxyethyl)amino)-1,3-dimethyl-3,7-dihydro-1H-purine-2,6-dione]: in data set [1], the CC50 was > 200 µM. Also, in data set [2], the EC50 was found to be 12.8 µM.
In turn, `COC(=O)c1ccc2c(ccn2-c2nc3c(c(=O)n(C)c(=O)n3C)n2Cc2cccc(OC)c2)c1` [IMB-2-32, Methyl-1-(7-(3-methoxybenzyl)-1,3-dimethyl-2,6-dioxo-2,3,6,7-tetrahydro-1H-purin-8-yl)-1H-indole-5-carboxylate] displayed a CC50 in data set [1] of 51.7 µM. The same compound had a concentration giving a half-maximal response (EC50) in data set [2] of 5.75 µM.
In the same order, the values of `Cn1c(=O)c2c(nc(NCCO)n2Cc2cccc(Br)c2)n(C)c1=O` [IMB-81, 7-(3-bromobenzyl)-8-((2-hydroxyethyl)amino)-1,3-dimethyl-3,7-dihydro-1H-purine-2,6-dione] are 124 µM and 2.47 µM.
Take `COc1ccc(Cn2c(=O)c3c(nc(NCCO)n3Cc3cccc(OC)c3)n(C)c2=O)cc1` [IMB-3-15, 8-((2-hydroxyethyl)amino)-7-(3-methoxybenzyl)-1-(4-methoxybenzyl)-3-methyl-3,7-dihydro-1H-purine-2,6-dione]: in data set [1], the CC50 is > 200 µM. The EC50 in data set [2] amounted to 17.2 µM.
As for `Cn1c(=O)c2c(nc(NCCO)n2Cc2ccsc2)n(C)c1=O` [IMB-4-12, 8-((2-hydroxyethyl)amino)-1,3-dimethyl-7-(thiophen-3-ylmethyl)-3,7-dihydro-1H-purine-2,6-dione], the CC50 in data set [1] was > 200 µM. The compound also registered an EC50 in data set [2] of 3.99 µM.

The term EC50 denotes the midpoint of the concentration-response curve. The low end stands for a more potent agent, the high end for a less potent agent.

Values taken from patent publication US20240352022A1, “GROUP OF IMB-C5 SERIES COMPOUNDS HAVING ANTI-CORONAVIRUS ACTIVITY AND APPLICATION THEREOF” (priority 2021, published 2024).
